Reference: ChEMBL document CHEMBL5380830, “Development and Therapeutic Implications of Tyrosine Kinase 2 Inhibitors” (J Med Chem, 2023)
pEC50, pIC50, pKd, pKi: −log10 of the molar value.

How the values were obtained:
[1] = biological target: T1, Tyrosine-protein kinase JAK1 (Homo sapiens, UniProt P23458); test: Inhibition of JAK1 (unknown origin) using ULight - JAK (Tyr1023) substrate incubated for 60 mins in presence of ATP by envision plate reader based analysis
[2] = biological target: T2, Tyrosine-protein kinase JAK3 (Homo sapiens, UniProt P52333); test: Inhibition of JAK3 (unknown origin) using ULight - JAK (Tyr1023) substrate incubated for 60 mins in presence of ATP by envision plate reader based analysis
T2 sequence (P52333 whole entry): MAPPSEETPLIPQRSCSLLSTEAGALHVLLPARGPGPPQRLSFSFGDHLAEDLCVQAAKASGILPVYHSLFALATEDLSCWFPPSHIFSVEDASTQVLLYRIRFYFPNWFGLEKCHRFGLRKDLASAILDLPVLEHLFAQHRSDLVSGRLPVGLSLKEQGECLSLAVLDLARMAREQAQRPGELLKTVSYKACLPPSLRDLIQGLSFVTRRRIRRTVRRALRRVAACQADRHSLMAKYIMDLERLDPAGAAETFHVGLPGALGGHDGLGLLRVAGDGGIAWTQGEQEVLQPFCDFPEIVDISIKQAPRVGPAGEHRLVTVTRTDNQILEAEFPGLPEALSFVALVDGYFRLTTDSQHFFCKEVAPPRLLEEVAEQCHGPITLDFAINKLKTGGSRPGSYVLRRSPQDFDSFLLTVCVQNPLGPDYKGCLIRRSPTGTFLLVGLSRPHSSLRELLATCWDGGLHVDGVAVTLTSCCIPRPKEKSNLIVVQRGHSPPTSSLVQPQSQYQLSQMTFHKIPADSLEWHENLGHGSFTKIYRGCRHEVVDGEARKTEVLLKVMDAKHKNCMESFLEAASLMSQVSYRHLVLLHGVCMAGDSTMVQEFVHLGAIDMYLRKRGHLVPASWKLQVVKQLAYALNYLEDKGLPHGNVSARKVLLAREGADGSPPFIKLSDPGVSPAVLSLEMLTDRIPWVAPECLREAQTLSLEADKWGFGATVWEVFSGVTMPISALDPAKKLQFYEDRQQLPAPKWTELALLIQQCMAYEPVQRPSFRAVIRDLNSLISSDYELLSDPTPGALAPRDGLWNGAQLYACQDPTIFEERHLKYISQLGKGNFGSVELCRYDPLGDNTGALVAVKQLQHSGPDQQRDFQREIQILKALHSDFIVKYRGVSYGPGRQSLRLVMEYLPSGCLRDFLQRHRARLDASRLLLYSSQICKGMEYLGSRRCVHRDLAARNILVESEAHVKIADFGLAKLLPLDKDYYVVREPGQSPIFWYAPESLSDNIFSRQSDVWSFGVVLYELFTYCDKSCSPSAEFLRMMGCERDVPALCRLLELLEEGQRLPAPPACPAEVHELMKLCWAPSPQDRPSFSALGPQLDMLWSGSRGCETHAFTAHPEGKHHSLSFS

JAK2/TYK2 [3] = biological target: T3, JAK2/TYK2 (Homo sapiens, UniProt O60674+P29597); test: Inhibition of JAK2/TYK2 signal transduction pathway in human PBMC cells assessed as IL-12 induced p-STAT4 level by AlphaLISA assay; assay type: cell-based
JAK2/TYK2 [4] = biological target: T3, JAK2/TYK2; test: Inhibition of JAK2/TYK2 signal transduction pathway in human PBMC cells assessed as IL-23 induced p-STAT4 level by AlphaLISA assay; assay type: cell-based
[5] = biological target: T4, Non-receptor tyrosine-protein kinase TYK2 (Homo sapiens, UniProt P29597); test: Binding affinity to His-tagged human recombinant TYK2 JH2 (556 to 871 residues) incubated for 10 hrs by microplate reader based analysis
[6] = Inhibition of IL-23 induced STAT phosphorylation in HEK293 cells by Western blotting analysis; assay type: cell-based; conditions: Homo sapiens
[7] = Inhibition of IL-2 induced STAT phosphorylation in HEK293 cells by Western blotting analysis; assay type: cell-based; conditions: Homo sapiens
[8] = Inhibition of IFNalpha induced STAT phosphorylation in HEK293 cells by Western blotting analysis; assay type: cell-based; conditions: Homo sapiens
Janus Kinase (JAK) = Janus Kinase (JAK) (Homo sapiens, UniProt P52333+P23458+O60674+P29597); test: Inhibition of JAK JH1 (unknown origin); assay type: protein assay
[9] = Inhibition of IFN-gamma induced STAT phosphorylation in HEK293 cells by Western blotting analysis; assay type: cell-based; conditions: Homo sapiens
[10] = biological target: T1, Tyrosine-protein kinase JAK1; test: Inhibition of JAK1 JH2 (unknown origin)
[11] = biological target: T4, Non-receptor tyrosine-protein kinase TYK2; test: Inhibition of TYK2 signal transduction pathway in human TF-1 cells assessed as reduction in GM-CSF induced p-STAT5 level; assay type: cell-based
[12] = biological target: T4, Non-receptor tyrosine-protein kinase TYK2; test: Inhibition of TYK2 JH2 (561 to 860 residues) (unknown origin) by HTRF assay
JAK2/TYK2 [13] = biological target: T3, JAK2/TYK2; test: Inhibition of JAK2/TYK2 signal transduction pathway in human NK92 cells assessed as IL-12 induced STAT4 phosphorylation; assay type: cell-based
[14] = biological target: T2, Tyrosine-protein kinase JAK3; test: Inhibition of JAK3 (unknown origin)
[15] = biological target: T4, Non-receptor tyrosine-protein kinase TYK2; test: Inhibition of TYK2 JH1 (unknown origin)
[16] = biological target: T1, Tyrosine-protein kinase JAK1; test: Inhibition of JAK1 (unknown origin)
[17] = AUC in C57BL/6 mouse at 10 mg/kg, po by LC/MS-MS analysis; assay type: ADME, organism-based; design: dose 10 mg/kg, route po; conditions: in vivo
[18] = Cmax in C57BL/6 mouse at 10 mg/kg, po by LC/MS-MS analysis; assay type: ADME, organism-based; design: dose 10 mg/kg, route po; conditions: in vivo
[19] = biological target: T4, Non-receptor tyrosine-protein kinase TYK2; test: Inhibition of TYK2 JH2 (unknown origin)
[20] = biological target: T5, Tyrosine-protein kinase JAK2 (Homo sapiens, UniProt O60674); test: Inhibition of JAK2 (unknown origin)
[21] = biological target: T4, Non-receptor tyrosine-protein kinase TYK2; test: Inhibition of TYK2 in HEK-Blue IL-23 cells assessed as reduction in SEAP reporter gene expression by Quanti-blue assay; assay type: cell-based
[22] = biological target: T5, Tyrosine-protein kinase JAK2; test: Inhibition of JAK2 in human TF-1 cells assessed as reduction of STAT5 phosphorylation by ELISA assay; assay type: cell-based
JAK1/TYK2 = JAK1/TYK2 (Homo sapiens, UniProt P23458+P29597); test: Inhibition of JAK2/TYK2 in HEK293T cells co-expressing luciferase gene under control of ISRE assessed as reduction in IFNalpha expression incubated for 6 hrs by one-glo reagent based luciferase reporter gene assay; assay type: cell-based
JAK2/TYK2 [23] = biological target: T3, JAK2/TYK2; test: Inhibition of JAK2/TYK2 in HEK-Blue IL-23 cells assessed as reduction in SEAP reporter gene expression incubated for 21 hrs by Quanti-blue assay; assay type: cell-based
[24] = Half life in ICR mouse at 30 mg/kg, IG by LC/MS/MS analysis; assay type: ADME, organism-based; conditions: in vivo, po
[25] = Cmax in ICR mouse at 30 mg/kg, IG by LC/MS/MS analysis; assay type: ADME, organism-based; design: dose 30 mg/kg, route ig; conditions: in vivo, po
[26] = Metabolic stability in human liver microsomes assessed as compound remaining after 60 mins; assay type: ADME, Microsome; conditions: read-out: Stability
[27] = Half life in C57BL/6 mouse at 10 mg/kg, po by LC/MS-MS analysis; assay type: ADME, organism-based; conditions: in vivo
[28] = biological target: T4, Non-receptor tyrosine-protein kinase TYK2; test: Binding affinity to TYK2 JH2 (unknown origin)
[29] = biological target: T4, Non-receptor tyrosine-protein kinase TYK2; test: Inhibition of TYK2 signal transduction pathway in human PBMC cells assessed as IFNalpha induced p-STAT5 level; assay type: cell-based
[30] = Oral bioavailability in C57BL/6 mouse at 10 mg/kg by LC/MS-MS analysis; assay type: ADME, organism-based; conditions: in vivo

T3 sequence (O60674 whole entry): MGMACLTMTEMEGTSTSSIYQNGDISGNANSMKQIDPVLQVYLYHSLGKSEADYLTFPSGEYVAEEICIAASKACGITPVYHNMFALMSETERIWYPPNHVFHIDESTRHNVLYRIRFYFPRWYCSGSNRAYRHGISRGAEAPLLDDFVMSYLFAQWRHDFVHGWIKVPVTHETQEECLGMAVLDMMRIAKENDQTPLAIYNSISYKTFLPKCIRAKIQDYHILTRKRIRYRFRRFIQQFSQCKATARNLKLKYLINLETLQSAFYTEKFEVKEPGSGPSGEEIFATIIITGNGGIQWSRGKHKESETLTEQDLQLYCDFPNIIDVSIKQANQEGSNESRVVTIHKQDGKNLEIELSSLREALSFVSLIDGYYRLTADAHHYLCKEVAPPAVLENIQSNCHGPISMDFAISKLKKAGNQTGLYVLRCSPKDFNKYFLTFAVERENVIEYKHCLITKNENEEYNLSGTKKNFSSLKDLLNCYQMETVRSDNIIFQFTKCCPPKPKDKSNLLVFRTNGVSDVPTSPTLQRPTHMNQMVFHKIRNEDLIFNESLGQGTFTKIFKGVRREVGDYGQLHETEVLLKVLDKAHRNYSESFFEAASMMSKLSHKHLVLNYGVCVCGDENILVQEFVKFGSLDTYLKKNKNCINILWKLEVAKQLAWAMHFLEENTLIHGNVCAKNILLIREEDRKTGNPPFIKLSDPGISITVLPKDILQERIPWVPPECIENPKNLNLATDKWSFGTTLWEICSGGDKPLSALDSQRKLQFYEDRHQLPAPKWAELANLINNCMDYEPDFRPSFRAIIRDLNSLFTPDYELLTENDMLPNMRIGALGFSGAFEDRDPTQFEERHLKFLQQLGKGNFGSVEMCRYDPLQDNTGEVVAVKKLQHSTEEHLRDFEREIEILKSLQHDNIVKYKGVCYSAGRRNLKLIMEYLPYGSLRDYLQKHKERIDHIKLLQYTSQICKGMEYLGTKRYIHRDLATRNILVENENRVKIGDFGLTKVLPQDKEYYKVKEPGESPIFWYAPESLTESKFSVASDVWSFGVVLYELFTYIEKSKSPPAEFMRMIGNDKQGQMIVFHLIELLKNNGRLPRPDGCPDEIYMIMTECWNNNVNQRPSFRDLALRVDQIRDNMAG
T3 sequence (P29597 whole entry): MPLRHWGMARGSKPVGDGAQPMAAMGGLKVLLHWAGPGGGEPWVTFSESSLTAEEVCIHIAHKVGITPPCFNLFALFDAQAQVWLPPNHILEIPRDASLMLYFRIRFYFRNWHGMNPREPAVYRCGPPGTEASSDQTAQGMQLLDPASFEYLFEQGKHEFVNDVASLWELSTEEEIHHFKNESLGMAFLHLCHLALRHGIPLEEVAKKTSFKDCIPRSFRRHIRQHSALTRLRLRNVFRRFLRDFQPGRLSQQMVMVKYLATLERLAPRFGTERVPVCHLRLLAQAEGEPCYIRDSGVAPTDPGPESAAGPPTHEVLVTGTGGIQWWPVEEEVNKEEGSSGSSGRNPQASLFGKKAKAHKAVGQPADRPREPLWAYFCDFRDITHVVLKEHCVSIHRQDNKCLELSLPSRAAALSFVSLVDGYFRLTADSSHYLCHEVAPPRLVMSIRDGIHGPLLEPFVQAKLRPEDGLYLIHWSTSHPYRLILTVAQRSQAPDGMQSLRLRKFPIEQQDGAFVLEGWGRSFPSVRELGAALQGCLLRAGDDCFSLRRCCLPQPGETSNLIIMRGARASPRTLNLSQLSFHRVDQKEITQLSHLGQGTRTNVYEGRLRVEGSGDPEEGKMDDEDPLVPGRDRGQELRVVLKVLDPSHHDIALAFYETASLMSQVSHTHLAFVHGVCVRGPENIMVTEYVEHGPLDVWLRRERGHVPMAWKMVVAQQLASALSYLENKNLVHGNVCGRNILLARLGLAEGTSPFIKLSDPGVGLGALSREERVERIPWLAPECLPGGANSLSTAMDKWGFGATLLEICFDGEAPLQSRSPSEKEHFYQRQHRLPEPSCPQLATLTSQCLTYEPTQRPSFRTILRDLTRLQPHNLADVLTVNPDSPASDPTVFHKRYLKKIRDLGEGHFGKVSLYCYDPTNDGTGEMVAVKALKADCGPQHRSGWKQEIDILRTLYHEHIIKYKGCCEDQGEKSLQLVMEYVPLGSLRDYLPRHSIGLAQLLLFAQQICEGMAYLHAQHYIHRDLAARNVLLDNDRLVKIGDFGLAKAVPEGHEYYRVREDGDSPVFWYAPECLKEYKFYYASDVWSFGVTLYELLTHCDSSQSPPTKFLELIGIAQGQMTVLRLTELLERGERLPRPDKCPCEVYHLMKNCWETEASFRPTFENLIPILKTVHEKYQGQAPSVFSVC
T5 sequence (O60674 whole entry): as the sequence (O60674 whole entry) above
T4 sequence (P29597 whole entry, the tested form may be a part): as the sequence (P29597 whole entry) above
T1 sequence (P23458 whole entry): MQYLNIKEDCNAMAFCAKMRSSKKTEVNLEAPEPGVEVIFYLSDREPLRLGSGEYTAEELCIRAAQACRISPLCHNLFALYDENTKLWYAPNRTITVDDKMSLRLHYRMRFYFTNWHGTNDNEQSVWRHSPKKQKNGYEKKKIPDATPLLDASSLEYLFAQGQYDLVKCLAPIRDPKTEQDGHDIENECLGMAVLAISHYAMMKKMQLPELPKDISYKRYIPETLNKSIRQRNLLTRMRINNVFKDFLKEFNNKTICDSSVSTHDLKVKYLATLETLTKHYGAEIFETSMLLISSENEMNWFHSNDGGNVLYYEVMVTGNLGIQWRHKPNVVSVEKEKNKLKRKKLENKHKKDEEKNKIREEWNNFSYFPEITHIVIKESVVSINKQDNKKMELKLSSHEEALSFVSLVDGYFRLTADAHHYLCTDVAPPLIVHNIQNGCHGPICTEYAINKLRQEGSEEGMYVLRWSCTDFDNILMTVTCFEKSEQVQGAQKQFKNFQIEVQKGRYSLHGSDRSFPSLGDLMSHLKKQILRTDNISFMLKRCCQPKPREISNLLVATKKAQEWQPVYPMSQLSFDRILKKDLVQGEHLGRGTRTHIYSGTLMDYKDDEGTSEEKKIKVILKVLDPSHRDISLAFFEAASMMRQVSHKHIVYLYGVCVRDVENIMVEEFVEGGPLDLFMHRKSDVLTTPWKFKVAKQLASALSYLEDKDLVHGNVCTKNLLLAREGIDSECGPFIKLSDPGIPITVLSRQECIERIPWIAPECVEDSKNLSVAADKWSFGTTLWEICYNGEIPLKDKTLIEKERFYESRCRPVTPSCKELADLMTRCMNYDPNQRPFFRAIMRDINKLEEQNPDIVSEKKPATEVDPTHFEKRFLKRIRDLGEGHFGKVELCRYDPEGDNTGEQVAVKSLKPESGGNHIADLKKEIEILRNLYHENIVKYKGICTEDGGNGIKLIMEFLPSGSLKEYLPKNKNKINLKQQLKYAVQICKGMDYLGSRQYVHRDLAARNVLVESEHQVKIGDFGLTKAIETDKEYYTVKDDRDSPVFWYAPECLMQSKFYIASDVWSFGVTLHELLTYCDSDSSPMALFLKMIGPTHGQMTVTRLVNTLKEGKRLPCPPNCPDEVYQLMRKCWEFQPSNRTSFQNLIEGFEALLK
Sequence of JAK1/TYK2 (P23458 whole entry): as above
Sequence of JAK1/TYK2 (P29597 whole entry): as the sequence (P29597 whole entry) above

Cn1cc(-c2cn3ncnc3c(-c3ccn([C@]4(CC#N)C[C@@H](C#N)C4)c3)n2)cn1
pIC50 [1]: < 5.30
pIC50 [2]: < 5.30

CO[C@@]1(c2cc(C)cc(-n3nc(-c4cnn(C)c4)c4cnc(NC(N)=O)cc43)n2)CCOC1
pIC50 (JAK2/TYK2 [3]): 8.05
pIC50 (JAK2/TYK2 [4]): 8.52
pKi [5]: 8.70

N#Cc1ccc(-n2[nH]c(=O)c3cnc(Nc4ccc(F)cn4)cc32)cc1Cl
pIC50 [6]: > 5.00
pIC50 [7]: < 4.05
pIC50 [8]: > 5.00
IC50 (Janus Kinase (JAK)): > 90000 nM
pIC50 [9]: < 4.05

COc1cccc(-n2[nH]c(=O)c3cnc(Nc4cc(C)nc(C)n4)cc32)c1F
pIC50 [6]: > 5.00
pIC50 [7]: < 4.05
pIC50 [8]: > 5.00
IC50 (Janus Kinase (JAK)): > 90000 nM
pIC50 [9]: < 4.05

COCCOc1cc(Nc2cc(NC(C)=O)ncc2-c2ccccn2)nc(S(C)(=O)=O)c1
pIC50 [10]: 8.92
pIC50 [11]: < 5.00
pIC50 [12]: 10.74
pIC50 (JAK2/TYK2 [13]): 8.92

CO[C@@]1(c2cc(C)cc(-n3cc(C4CCN(C)CC4)c4cnc(NC(N)=O)cc43)n2)CCOC1
pIC50 [14]: < 5.00
pIC50 [15]: < 5.00
pIC50 [16]: < 5.00
AUC [17]: 16600 ng·h/mL
Cmax [18]: 2740 ng/mL
pIC50 [19]: 8.68
pIC50 [20]: < 5.00

[2H]C([2H])([2H])NC(=O)c1nnc(NC(=O)[C@H]2CC23CC3)cc1Nc1ncc(OCCOC)cc1S(C)(=O)=O
pIC50 [21]: > 9.00

[2H]C([2H])([2H])Nc1cc(Nc2cc(Cl)cn(-c3ccccn3)c2=O)nn2c(C(=O)N[C@@H]3C[C@@H]3F)cnc12
pEC50 [22]: < 5.00
pEC50 (JAK1/TYK2): > 8.00
pEC50 (JAK2/TYK2 [23]): > 9.00

[2H]C([2H])([2H])NC(=O)c1nnc(NC(=O)C2CC2)cc1Nc1cccc(-c2ncc(-c3cccnc3C(F)(F)F)cn2)c1OC
half-life [24]: 6.26 h
Cmax [25]: 12500 ng/mL
remaining at 1 h [26]: 100%

CO[C@@]1(c2cc(C)cc(-n3cc(C4CC4)c4cnc(NC(C)=O)cc43)n2)CCOC1
pIC50 [15]: < 5.00
AUC [17]: 10900 ng·h/mL
Cmax [18]: 2060 ng/mL
pIC50 [19]: 9.22
pIC50 [20]: < 5.00

CNC(=O)c1cnc2cc1Nc1cc(cc(-c3ccn(C)n3)c1OC)CCOCc1nc(ccc1C)N2
pIC50 [14]: < 5.00
pIC50 [15]: < 5.00
half-life [27]: 2.26 h
pIC50 [16]: < 5.00
pKd [28]: > 9.00
pIC50 [29]: ≥ 7.30
pIC50 [20]: < 5.00
bioavailability [30]: 148%

[2H]C([2H])([2H])NC(=O)c1nnc2cc1Nc1cc(cc(-c3ccn(C)n3)c1OC)CCOCc1cccc(n1)N2
pIC50 [14]: < 5.00
pIC50 [15]: < 5.00
half-life [27]: 3.01 h
pIC50 [16]: < 5.00
pKd [28]: > 9.00
pIC50 [29]: ≥ 7.30
pIC50 [20]: < 5.00
bioavailability [30]: 147%

CO[C@@]1(c2cc(C)cc(-c3cc(C)n4cnc(NC(N)=O)cc34)n2)CCOC1
pIC50 (JAK2/TYK2 [3]): 8.10
pIC50 (JAK2/TYK2 [4]): 8.70
pKi [5]: 8.70
